# Reference: patent US20250319139A1, “METHODS FOR TREATING NEUROINFLAMMATION” (University of Virginia Patent Foundation, priority 2021, published 2025)
# What was measured:
# Type in all cases: in vivo, mouse
# Iba-1 = Iba-1 immunofluorescent staining of hippocampus; details: young adult mice with exercise and surgery; intraperitoneal valeric acid
# Protocol: (§1) The immunofluorescent labeling and quantification of the staining were performed as described before. Briefly, brain was fixed in 4% paraformaldehyde at 4° C. for 24 h and then incubated in 30% sucrose over night at 4° C. before being frozen in optimal cutting temperature compound. Coronal 20-μm thick sections were cut sequentially from Bregma -3 to -6 mm by using a cryostat and mounted on microscope slides. After being washed in Tris-buffered saline (TBS), sections were blocked in 10% donkey serum plus 1% bovine serum albumin (BSA) in TBS containing 0. 3% triton-X 100 for 2 h at room temperature and then incubated at 4° C. overnight with the following primary antibodies: rabbit monoclonal anti-C3 antibody (1:50), goat monoclonal anti-GFAP antibody (1:200), rat monoclonal anti-[…] antibody (1:50) and rabbit monoclonal anti-Iba-1 antibody (1:200). Sections were rinsed in TBS with 0.1% Triton-x 100. […] The quantification was performed as described previously. […] The number of pixels per image with intensity above a predetermined threshold level was considered as a positively stained area for an interested marker and quantified using the Image-pro plus 6.0 (Media Cybernetics, Inc., Rockville, MD, USA) and presented as percentage of positive area in the total area. […] All quantitative analyses were performed in a blinded manner.
# IL-17 = experiment: ELISA of IL-17 in the serum
# Protocol: Mice were weighed and anesthetized with isoflurane at 24 h after MCAO. Blood samples were obtained from the right heart after thoracotomy. Blood was centrifuged (13,000 g, 4° C.) after it had been placed at 4° C. for 2 h for the collection of serum. After the collection of blood, mice were perfused with 4° C. saline for brain tissue harvesting. The cerebral cortex (anteroposterior: −1.5 to 2.5 mm, mediolateral: 1.0 to 3.0 mm) was dissected out. All dissection procedures were performed on ice.
# (§2) IL-10, IL-17, IL-1β and IL-6 in the serum and brain were detected by using ELISA kits (catalog number: M1000B, M1700, MLB00C and D6050, R&D SYSTEM, Inc., Minneapolis, MN, USA) as we described before. The brain tissues were homogenized on ice in the RIPA buffer containing 25 mM Tris-HCl with pH 7.6, 150 mM NaCl, 1% sodium deoxycholate and 0.1% SDS (catalog number: 89901, Thermo Scientific, Rockford, IL, USA) and a protease inhibitor cocktail containing 10 mg/ml aproteinin, 5 mg/ml peptastin, 5 mg/ml leupetin and 1 mM phenylmethane sulfonylfluoride (catalog number: SRE0055, Sigma-Aldrich, St. Louis, MO, USA). The supernatant was collected for ELISA detection after being centrifuged for 20 min (13,000 g, 4° C.) and the protein concentration was determined by the BCA method. Cytokines in the serum and supernatant of brain were detected according to the manufacturer's instruction. The amount of IL-10, IL-17, IL-1β and IL-6 in each sample in the brain was normalized by its protein content.
# GDNF = GDNF in the hippocampus by ELISA; details: exercise mice with surgery; intraperitoneal valeric acid
# Protocol: IL-1β, IL-6, C3 and GDNF in the hippocampus were detected by using ELISA kits. For testing the IL-1β, IL-6 and GDNF, brain tissues were homogenized on ice in the RIPA buffer containing 25 mM Tris-HCl with pH 7.6, 150 mM NaCl, 1% sodium deoxycholate, 0.1% SDS and a protease inhibitor cocktail containing 10 mg/ml aproteinin, 5 mg/ml […], 5 mg/ml leupetin and 1 mM phenylmethane sulfonylfluoride. For C3 testing, brain tissues were homogenized on ice in the PTR buffer (supplied in the kit). The supernatant was collected for ELISA detection after the homogenate was centrifuged at 13,000 g for 20 min at 4° C. and the protein concentration was determined by the BCA protein assay (Bio-Rad, Hemel Hempstead, Herts, UK). IL-1β, IL-6, C3 and GDNF in supernatant of brain were detected according to the manufacturer's instruction for ELISA, and the amount of them in each sample in the brain was normalized by its total protein content and was expressed as pg/mg protein.
# IL-1β = experiment: ELISA of IL-1β in the serum; details: young mice, 100 mg/kg intraperitoneal 1 h before and 6 h after 120-min MCAO; 24 h after MCAO; vs saline
# Protocol: as §2, with “Mice were weighed and anesthetized with isoflurane at 24 h after MCAO. Blood samples were obtained from the right heart after thoracotomy. Blood was centrifuged (13,000 g, 4° C.) after it had been placed at 4° C. for 2 h for the collection of serum. After the collection of blood, mice were perfused with 4° C. saline for brain tissue harvesting. The cerebral cortex (anteroposterior: -1.5 to 2.5 mm, mediolateral: 1.0 to 3.0 mm) was dissected out. All dissection procedures were performed on ice. IL-10,” for “IL-10,”, “[…],” for “peptastin,”, “The amount of IL-10, IL-17, IL-1β and IL-6 in each sample in the brain was normalized by its protein content.” left out
# C3ar = C3ar immunofluorescent staining of hippocampus; details: young adult mice with exercise and surgery; intraperitoneal valeric acid
# Protocol: as §1
smiles,measurement,setting,value
CCCCC(=O)O [valeric acid],exercise-induced reduction of Iba-1 in the hippocampus,Iba-1,this reduction was blocked
same,IL-17 in the blood,"IL-17; mice without MCAO, valeric sodium 100 mg/kg intraperitoneal for 7 days",increase
same,IL-17 in the blood,"IL-17; young mice, 100 mg/kg intraperitoneal 1 h before and 6 h after 120-min MCAO, 24 h after MCAO, vs saline",increased
same,GDNF levels in the hippocampus,GDNF,decreased
same,IL-1β in the blood,IL-1β,increased
same,exercise-induced reduction of C3ar in the hippocampus,C3ar,this reduction was blocked
